Laboratory results taken from patent publication US20100267561A1, “HERBICIDAL PYRIDAZINONE DERIVATIVES” (priority 2007, published 2010).

Assays:
Assay in all cases: Test E pre-/postemergence plant response
Type in all cases: in vivo
[1] = tested on: purple nutsedge (Cyperus rotundus); conditions: scale 0 to 100
In short: (§1)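 Formulated in a non-phytotoxic solvent mixture containing surfactant, compound was applied to soil at planting or sprayed on emerged plants at the 1- to 4-leaf stage. Visual comparison with controls followed 14 to 21 days in the greenhouse; 0 = no effect, 100 = complete control.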

[2] = tested on: annual bluegrass (Poa annua); conditions: scale 0 to 100
In short: as §1

[3] = tested on: johnsongrass (Sorghum halepense); conditions: scale 0 to 100
In short: as §1

[4] = tested on: broadleaf signalgrass (Brachiaria platyphylla); conditions: scale 0 to 100
In short: as §1

[5] = tested on: naked crabgrass (Digitaria nuda); conditions: scale 0 to 100
In short: as §1

[6] = tested on: itchgrass (Rottboellia cochinchinensis); conditions: scale 0 to 100
In short: as §1

[7] = tested on: pitted morningglory (Ipomoea lacunosa); conditions: scale 0 to 100
In short: as §1

[8] = tested on: common chickweed (Stellaria media); conditions: Postemergence, scale 0 to 100
In short: as §1

[9] = tested on: green foxtail (Setaria viridis); conditions: scale 0 to 100
In short: as §1

[10] = tested on: quackgrass (Elytrigia repens); conditions: scale 0 to 100
In short: as §1

[11] = tested on: surinam grass (Brachiaria decumbens); conditions: scale 0 to 100
In short: as §1

[12] = tested on: common mallow (Malva sylvestris); conditions: Postemergence, scale 0 to 100
In short: as §1

[13] = tested on: bermudagrass (Cynodon dactylon); conditions: scale 0 to 100
In short: as §1

[14] = tested on: Italian ryegrass (Lolium multiflorum); conditions: scale 0 to 100
In short: as §1

[15] = tested on: large crabgrass (Digitaria sanguinalis); conditions: scale 0 to 100
In short: as §1

For `CCc1cc(-c2ccc(Cl)cc2)nn1-c1c(OS(C)(=O)=O)cnn(C)c1=O` [Compound 39], the “Plant response rating, Nutsedge, Purple” value ([1]; 16 g ai/ha, Preemergence) was 0, the “Plant response rating, Nutsedge, Purple” value ([1]; 31 g ai/ha, Preemergence) was 0 and the “Plant response rating, Nutsedge, Purple” value ([1]; Postemergence, 8 g ai/ha) was 0. For the same compound, the “Plant response rating, Nutsedge, Purple” value ([1]; Postemergence, 16 g ai/ha) was 0, the “Plant response rating, Nutsedge, Purple” value ([1]; Postemergence, 31 g ai/ha) was 0 and the “Plant response rating, Nutsedge, Purple” value ([1]; Postemergence, 62 g ai/ha) was 0. The “Plant response rating, Bluegrass” value ([2]; 8 g ai/ha, Preemergence) was 0, the “Plant response rating, Bluegrass” value ([2]; 16 g ai/ha, Preemergence) was 0 and the “Plant response rating, Bluegrass” value ([2]; 31 g ai/ha, Preemergence) was 0. For the same compound, the “Plant response rating, Bluegrass” value ([2]; 62 g ai/ha, Preemergence) was 0, the “Plant response rating, Bluegrass” value ([2]; Postemergence, 8 g ai/ha) was 0 and the “Plant response rating, Bluegrass” value ([2]; Postemergence, 16 g ai/ha) was 0. The “Plant response rating, Bluegrass” value ([2]; Postemergence, 31 g ai/ha) was 0, the “Plant response rating, Bluegrass” value ([2]; Postemergence, 62 g ai/ha) was 0 and the “Plant response rating, Johnsongrass” value ([3]; 16 g ai/ha, Preemergence) was 75. The “Plant response rating, Johnsongrass” value ([3]; 31 g ai/ha, Preemergence) was 80, the “Plant response rating, Johnsongrass” value ([3]; 62 g ai/ha, Preemergence) was 98 and the “Plant response rating, Johnsongrass” value ([3]; Postemergence, 8 g ai/ha) was 35. For the same compound, the “Plant response rating, Johnsongrass” value ([3]; Postemergence, 16 g ai/ha) was 75, the “Plant response rating, Johnsongrass” value ([3]; Postemergence, 31 g ai/ha) was 75 and the “Plant response rating, Johnsongrass” value ([3]; Postemergence, 62 g ai/ha) was 95. The “Plant response rating, Signalgrass” value ([4]; 16 g ai/ha, Preemergence) was 85, the “Plant response rating, Signalgrass” value ([4]; 31 g ai/ha, Preemergence) was 95 and the “Plant response rating, Signalgrass” value ([4]; 62 g ai/ha, Preemergence) was 100. For the same compound, the “Plant response rating, Signalgrass” value ([4]; Postemergence, 8 g ai/ha) was 35, the “Plant response rating, Signalgrass” value ([4]; Postemergence, 16 g ai/ha) was 95 and the “Plant response rating, Signalgrass” value ([4]; Postemergence, 31 g ai/ha) was 95. For the same compound, the “Plant response rating, Signalgrass” value ([4]; Postemergence, 62 g ai/ha) was 100, the “Plant response rating, Crabgrass, Naked” value ([5]; 8 g ai/ha, Preemergence) was 75 and the “Plant response rating, Crabgrass, Naked” value ([5]; 16 g ai/ha, Preemergence) was 98. The “Plant response rating, Crabgrass, Naked” value ([5]; 31 g ai/ha, Preemergence) was 98, the “Plant response rating, Crabgrass, Naked” value ([5]; 62 g ai/ha, Preemergence) was 100 and the “Plant response rating, Crabgrass, Naked” value ([5]; Postemergence, 8 g ai/ha) was 65. For the same compound, the “Plant response rating, Crabgrass, Naked” value ([5]; Postemergence, 16 g ai/ha) was 80, the “Plant response rating, Crabgrass, Naked” value ([5]; Postemergence, 31 g ai/ha) was 80 and the “Plant response rating, Crabgrass, Naked” value ([5]; Postemergence, 62 g ai/ha) was 98. The “Plant response rating, Itchgrass” value ([6]; 16 g ai/ha, Preemergence) was 60, the “Plant response rating, Itchgrass” value ([6]; 31 g ai/ha, Preemergence) was 75 and the “Plant response rating, Itchgrass” value ([6]; 62 g ai/ha, Preemergence) was 80. The “Plant response rating, Itchgrass” value ([6]; Postemergence, 8 g ai/ha) was 20, the “Plant response rating, Itchgrass” value ([6]; Postemergence, 16 g ai/ha) was 25 and the “Plant response rating, Itchgrass” value ([6]; Postemergence, 31 g ai/ha) was 40. For the same compound, the “Plant response rating, Itchgrass” value ([6]; Postemergence, 62 g ai/ha) was 60, the “Plant response rating, Morningglory” value ([7]; 16 g ai/ha, Preemergence) was 0 and the “Plant response rating, Morningglory” value ([7]; 31 g ai/ha, Preemergence) was 0. For the same compound, the “Plant response rating, Morningglory” value ([7]; 62 g ai/ha, Preemergence) was 0, the “Plant response rating, Morningglory” value ([7]; Postemergence, 8 g ai/ha) was 0 and the “Plant response rating, Morningglory” value ([7]; Postemergence, 16 g ai/ha) was 0. For the same compound, the “Plant response rating, Morningglory” value ([7]; Postemergence, 31 g ai/ha) was 0, the “Plant response rating, Morningglory” value ([7]; Postemergence, 62 g ai/ha) was 0 and the “Plant response rating, Chickweed” value ([8]; 8 g ai/ha) was 0. The “Plant response rating, Chickweed” value ([8]; 16 g ai/ha) was 0, the “Plant response rating, Chickweed” value ([8]; 31 g ai/ha) was 0 and the “Plant response rating, Chickweed” value ([8]; 62 g ai/ha) was 0. For the same compound, the “Plant response rating, Foxtail, Green” value ([9]; 8 g ai/ha, Preemergence) was 75, the “Plant response rating, Foxtail, Green” value ([9]; 16 g ai/ha, Preemergence) was 90 and the “Plant response rating, Foxtail, Green” value ([9]; 31 g ai/ha, Preemergence) was 98. For the same compound, the “Plant response rating, Foxtail, Green” value ([9]; 62 g ai/ha, Preemergence) was 100, the “Plant response rating, Foxtail, Green” value ([9]; Postemergence, 8 g ai/ha) was 60 and the “Plant response rating, Foxtail, Green” value ([9]; Postemergence, 16 g ai/ha) was 70. For the same compound, the “Plant response rating, Foxtail, Green” value ([9]; Postemergence, 31 g ai/ha) was 75, the “Plant response rating, Foxtail, Green” value ([9]; Postemergence, 62 g ai/ha) was 95 and the “Plant response rating, Quackgrass” value ([10]; 16 g ai/ha, Preemergence) was 60. The “Plant response rating, Quackgrass” value ([10]; 31 g ai/ha, Preemergence) was 95, the “Plant response rating, Quackgrass” value ([10]; 62 g ai/ha, Preemergence) was 100 and the “Plant response rating, Quackgrass” value ([10]; Postemergence, 8 g ai/ha) was 0. For the same compound, the “Plant response rating, Quackgrass” value ([10]; Postemergence, 16 g ai/ha) was 30, the “Plant response rating, Quackgrass” value ([10]; Postemergence, 31 g ai/ha) was 60 and the “Plant response rating, Quackgrass” value ([10]; Postemergence, 62 g ai/ha) was 60. The “Plant response rating, Surinam Grass” value ([11]; 16 g ai/ha, Preemergence) was 100, the “Plant response rating, Surinam Grass” value ([11]; 31 g ai/ha, Preemergence) was 100 and the “Plant response rating, Surinam Grass” value ([11]; 62 g ai/ha, Preemergence) was 100. The “Plant response rating, Surinam Grass” value ([11]; Postemergence, 8 g ai/ha) was 95, the “Plant response rating, Surinam Grass” value ([11]; Postemergence, 16 g ai/ha) was 100 and the “Plant response rating, Surinam Grass” value ([11]; Postemergence, 31 g ai/ha) was 100. For the same compound, the “Plant response rating, Surinam Grass” value ([11]; Postemergence, 62 g ai/ha) was 100, the “Plant response rating, Mallow” value ([12]; 8 g ai/ha) was 0 and the “Plant response rating, Mallow” value ([12]; 16 g ai/ha) was 0. The “Plant response rating, Mallow” value ([12]; 31 g ai/ha) was 0, the “Plant response rating, Mallow” value ([12]; 62 g ai/ha) was 0 and the “Plant response rating, Bermudagrass” value ([13]; 8 g ai/ha, Preemergence) was 20. The “Plant response rating, Bermudagrass” value ([13]; 16 g ai/ha, Preemergence) was 75, the “Plant response rating, Bermudagrass” value ([13]; 31 g ai/ha, Preemergence) was 95 and the “Plant response rating, Bermudagrass” value ([13]; 62 g ai/ha, Preemergence) was 100. For the same compound, the “Plant response rating, Bermudagrass” value ([13]; Postemergence, 8 g ai/ha) was 35, the “Plant response rating, Bermudagrass” value ([13]; Postemergence, 16 g ai/ha) was 40 and the “Plant response rating, Bermudagrass” value ([13]; Postemergence, 31 g ai/ha) was 50. For the same compound, the “Plant response rating, Bermudagrass” value ([13]; Postemergence, 62 g ai/ha) was 65, the “Plant response rating, Ryegrass, Italian” value ([14]; 16 g ai/ha, Preemergence) was 100 and the “Plant response rating, Ryegrass, Italian” value ([14]; 31 g ai/ha, Preemergence) was 100. For the same compound, the “Plant response rating, Ryegrass, Italian” value ([14]; Postemergence, 8 g ai/ha) was 75, the “Plant response rating, Ryegrass, Italian” value ([14]; Postemergence, 16 g ai/ha) was 98 and the “Plant response rating, Ryegrass, Italian” value ([14]; Postemergence, 31 g ai/ha) was 98. The “Plant response rating, Ryegrass, Italian” value ([14]; Postemergence, 62 g ai/ha) was 100, the “Plant response rating, Crabgrass, Large” value ([15]; 8 g ai/ha, Preemergence) was 30 and the “Plant response rating, Crabgrass, Large” value ([15]; 16 g ai/ha, Preemergence) was 60. For the same compound, the “Plant response rating, Crabgrass, Large” value ([15]; 31 g ai/ha, Preemergence) was 98, the “Plant response rating, Crabgrass, Large” value ([15]; 62 g ai/ha, Preemergence) was 100 and the “Plant response rating, Crabgrass, Large” value ([15]; Postemergence, 8 g ai/ha) was 65. For the same compound, the “Plant response rating, Crabgrass, Large” value ([15]; Postemergence, 16 g ai/ha) was 90, the “Plant response rating, Crabgrass, Large” value ([15]; Postemergence, 31 g ai/ha) was 95 and the “Plant response rating, Crabgrass, Large” value ([15]; Postemergence, 62 g ai/ha) was 98.
